Source: PMC8538957 (Pharmaceutics, 2021)

Molecular target: T1, UGT2B7 (UDP-glycosyltransferase) (Homo sapiens, UniProt P16662)
T1 construct: human liver microsomes encapsulated in hydrogel (HLM-Gel)
T1 sequence (P16662 24-529): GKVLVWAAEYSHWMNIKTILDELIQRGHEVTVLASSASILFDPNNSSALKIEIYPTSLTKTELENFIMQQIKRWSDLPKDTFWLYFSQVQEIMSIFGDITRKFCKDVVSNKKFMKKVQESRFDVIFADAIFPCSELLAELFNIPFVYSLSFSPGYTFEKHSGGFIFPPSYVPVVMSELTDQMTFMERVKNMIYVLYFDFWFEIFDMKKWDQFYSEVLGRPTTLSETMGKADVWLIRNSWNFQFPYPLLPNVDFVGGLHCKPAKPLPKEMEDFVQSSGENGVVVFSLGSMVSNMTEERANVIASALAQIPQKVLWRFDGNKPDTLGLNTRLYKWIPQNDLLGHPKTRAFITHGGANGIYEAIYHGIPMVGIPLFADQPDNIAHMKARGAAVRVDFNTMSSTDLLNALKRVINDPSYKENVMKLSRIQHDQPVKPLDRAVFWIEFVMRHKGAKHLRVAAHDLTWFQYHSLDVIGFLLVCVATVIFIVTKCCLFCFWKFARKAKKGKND
Assay: inhibition of AZT glucuronidation in human liver microsomes in the Bio-PK dynamic system, HPLC, Ki fitted by MATLAB model
Type: biochemical

With `OC(Cn1cncn1)(Cn1cncn1)c1ccc(F)cc1F` [FCZ, fluconazole] the Ki was 14 µM.
